Laboratory results taken from ChEMBL document CHEMBL1201862, “PubChem BioAssay data set” (2004).
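Tested at 5 concentrations; 48 h exposure; 96-well plates; endpoints linearly interpolated, else capped at highest concentration. Here, GI50 denotes the concentration required for 50% inhibition of growth.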 The source made the active and inactive calls. Rule as the data show it: active = GI50 up to about 1.1 µM and inactive = higher.

Legend:
Assay in all cases: NCI tumour cell line growth inhibition, 48 h
HCT-15 = system: HCT-15
HT-29 = system: HT-29
CCRF-CEM = system: CCRF-CEM
IGROV-1 = system: IGROV-1
NCI/ADR-RES = system: NCI/ADR-RES
UACC-62 = system: UACC-62
SNB-19 = system: SNB-19
BT-549 = system: BT-549
HOP-62 = system: HOP-62
SF-295 = system: SF-295
TK-10 = system: TK-10
DU-145 = system: DU-145
RXF 393 = system: RXF 393
SK-MEL-5 = system: SK-MEL-5
SNB-75 = system: SNB-75
EKVX = system: EKVX
COLO 205 = system: COLO 205
OVCAR-8 = system: OVCAR-8
SF-268 = system: SF-268
CAKI-1 = system: CAKI-1

SMILES | GI50 (HCT-15) [µM] | GI50 (HT-29) | GI50 (CCRF-CEM) | GI50 (IGROV-1) | GI50 (NCI/ADR-RES) | GI50 (UACC-62) | GI50 (SNB-19) | GI50 (BT-549) | GI50 (HOP-62) | GI50 (SF-295) | GI50 (TK-10) | GI50 (DU-145) | GI50 (RXF 393) | GI50 (SK-MEL-5) | GI50 (SNB-75) | GI50 (EKVX) | GI50 (COLO 205) | GI50 (OVCAR-8) | GI50 (SF-268) | GI50 (CAKI-1)
CSc1nc2cc(S(=O)(=O)N3CCCCC3)ccc2s1 | > 100 | > 100 µM (inactive) | > 100 µM (inactive) | > 100 µM (inactive) | > 100 µM (inactive) | > 100 µM (inactive) | > 100 µM (inactive) | > 100 µM (inactive) | 57 µM (inactive) | 28 µM (inactive) | > 100 µM (inactive) | > 100 µM (inactive) | > 100 µM (inactive) | > 100 µM (inactive) | 61.4 µM (inactive) | 41.3 µM (inactive) | > 100 µM (inactive) | > 100 µM (inactive) | > 100 µM (inactive) | > 100 µM (inactive)
CC(C)(CO[C@H]1C[C@H]2CC[C@@]1(C)C2(C)C)[N+](=O)[O-] | 22.6 | 13 µM (inactive) | 18.8 µM (inactive) | 30.8 µM (inactive) | 27.9 µM (inactive) | 19.9 µM (inactive) | 14.1 µM (inactive) | 21.5 µM (inactive) | 19.5 µM (inactive) | 18.6 µM (inactive) | 17.1 µM (inactive) | 17.3 µM (inactive) | 11 µM (inactive) | 17.3 µM (inactive) | 19.4 µM (inactive) | 16.7 µM (inactive) | 15.6 µM (inactive) | 22.6 µM (inactive) | 33 µM (inactive) | 20 µM (inactive)
COc1ccc(CSC2=C(C#N)C(=O)NC3(CCCCC3)S2)cc1 | 57.8 | 38.1 µM (inactive) | 2.66 µM (inactive) | > 69.7 µM (inactive) | 49.7 µM (inactive) | 61.4 µM (inactive) | 54.5 µM (inactive) | 48.2 µM (inactive) | 61.8 µM (inactive) | 51.6 µM (inactive) | > 95.5 µM (inactive) | > 85.7 µM (inactive) | 30.5 µM (inactive) | 42.5 µM (inactive) | 62.2 µM (inactive) | 54 µM (inactive) | > 61.8 µM (inactive) | > 59.3 µM (inactive) | 47.1 µM (inactive) | 77.6 µM (inactive)
CN(C)CCCNC(=O)c1cc(NC(=O)c2cc(NS(=O)(=O)c3ccc4c(c3)C(=O)c3ccccc3C4=O)cn2C)cn1C | > 100 | 65.3 µM (inactive) | 31.7 µM (inactive) | > 100 µM (inactive) | > 100 µM (inactive) | 89.9 µM (inactive) | 41.5 µM (inactive) | 52.7 µM (inactive) | > 100 µM (inactive) | > 100 µM (inactive) | > 100 µM (inactive) | > 100 µM (inactive) | > 100 µM (inactive) | 29.2 µM (inactive) | > 100 µM (inactive) | > 100 µM (inactive) | 83.9 µM (inactive) | > 100 µM (inactive) | > 100 µM (inactive) | > 100 µM (inactive)
C[N+]1(C(CO)Cc2c[nH]c3ccccc23)Cc2ccccc2C1 (stereo not given) | > 100 | 92.3 µM (inactive) | > 100 µM (inactive) | > 100 µM (inactive) | > 100 µM (inactive) | > 100 µM (inactive) | > 100 µM (inactive) | 77.6 µM (inactive) | > 100 µM (inactive) | > 100 µM (inactive) | > 100 µM (inactive) | > 100 µM (inactive) | > 100 µM (inactive) | 32.6 µM (inactive) | > 100 µM (inactive) | 62.4 µM (inactive) | > 100 µM (inactive) | > 100 µM (inactive) | > 100 µM (inactive) | > 100 µM (inactive)
C[N+]12C=CC=C1C(N1CCCC1)c1sc(-c3ccc(Cl)cc3)cc12 (stereo not given) | 30.5 | 17.4 µM (inactive) | 17.5 µM (inactive) | 16.9 µM (inactive) | 36.9 µM (inactive) | 15.1 µM (inactive) | 13.6 µM (inactive) | 10.3 µM (inactive) | 17.5 µM (inactive) | 20.3 µM (inactive) | 19.6 µM (inactive) | 16.9 µM (inactive) | 17.9 µM (inactive) | 17.9 µM (inactive) | 11.3 µM (inactive) | 22.6 µM (inactive) | 16.9 µM (inactive) | 16.9 µM (inactive) | 17.1 µM (inactive) | > 100 µM (inactive)
O=C1/C(=C/c2ccccc2)CCc2ccc([N+](=O)[O-])cc21 | 39.7 | > 100 µM (inactive) | 4.13 µM (inactive) | 72.9 µM (inactive) | 43.6 µM (inactive) | 31 µM (inactive) | 27.2 µM (inactive) | 31.3 µM (inactive) | > 71.3 µM (inactive) | 33 µM (inactive) | 60.1 µM (inactive) | > 72.3 µM (inactive) | 23.8 µM (inactive) | 25.2 µM (inactive) | 37.3 µM (inactive) | > 91.8 µM (inactive) | > 100 µM (inactive) | 82.6 µM (inactive) | 30.7 µM (inactive) | > 100 µM (inactive)
O=S(=O)(O)C(CO)c1ccccc1.O=S(=O)(O)Cc1ccccc1 (stereo not given) | > 100 | > 100 µM (inactive) | 19.6 µM (inactive) | > 100 µM (inactive) | > 100 µM (inactive) | > 100 µM (inactive) | > 100 µM (inactive) | > 100 µM (inactive) | > 100 µM (inactive) | > 100 µM (inactive) | > 100 µM (inactive) | > 100 µM (inactive) | > 100 µM (inactive) | > 100 µM (inactive) | > 100 µM (inactive) | > 100 µM (inactive) | > 100 µM (inactive) | > 100 µM (inactive) | > 100 µM (inactive) | > 100 µM (inactive)
CC1(C)[C@@H](Cn2cnc3c(N)ncnc32)CC[C@@]1(C)CO | 51.1 | 39.4 µM (inactive) | 51.9 µM (inactive) | 42.7 µM (inactive) | 84.5 µM (inactive) | 32 µM (inactive) | > 100 µM (inactive) | > 100 µM (inactive) | > 100 µM (inactive) | 38.8 µM (inactive) | > 100 µM (inactive) | > 100 µM (inactive) | > 100 µM (inactive) | 60.7 µM (inactive) | > 100 µM (inactive) | > 100 µM (inactive) | 71.9 µM (inactive) | > 100 µM (inactive) | > 100 µM (inactive) | > 100 µM (inactive)
C[C@H]1CC(=O)C[C@@H]2CC[C@@H]3[C@H](CC[C@]4(C)C(OC(=O)c5cccc6c(=O)c7ccccc7[nH]c56)CC[C@@H]34)[C@]21C (stereo not given in full) | 31.3 | 32.5 µM (inactive) | 23.8 µM (inactive) | 38.5 µM (inactive) | 20.4 µM (inactive) | 21.6 µM (inactive) | > 100 µM (inactive) | 26.7 µM (inactive) | 36.6 µM (inactive) | 38.5 µM (inactive) | 64.7 µM (inactive) | 54.3 µM (inactive) | 39.2 µM (inactive) | 16 µM (inactive) | 31.1 µM (inactive) | 31.1 µM (inactive) | 22 µM (inactive) | 23.8 µM (inactive) | 57.5 µM (inactive) | 10 µM (inactive)
C[C@]12C[C@@H](c3ccccc3)Nc3ccccc3N1C(c1ccccc1)=NO2 | 35.4 | 30.6 µM (inactive) | 35.9 µM (inactive) | 38.1 µM (inactive) | 45.1 µM (inactive) | 33.4 µM (inactive) | 89.7 µM (inactive) | 40.9 µM (inactive) | 77.1 µM (inactive) | 16 µM (inactive) | 34.4 µM (inactive) | 92.3 µM (inactive) | 51.6 µM (inactive) | 16.1 µM (inactive) | 16.6 µM (inactive) | 24.3 µM (inactive) | 19 µM (inactive) | 36.1 µM (inactive) | 88.5 µM (inactive) | 37.1 µM (inactive)
CC(C)Cc1c(C#N)c(C#N)c(N)n1Cc1ccccc1 | > 100 | > 100 µM (inactive) | > 100 µM (inactive) | > 100 µM (inactive) | > 100 µM (inactive) | 55.5 µM (inactive) | > 100 µM (inactive) | > 100 µM (inactive) | > 100 µM (inactive) | > 100 µM (inactive) | > 100 µM (inactive) | > 100 µM (inactive) | > 100 µM (inactive) | > 100 µM (inactive) | 40.8 µM (inactive) | > 100 µM (inactive) | > 100 µM (inactive) | > 100 µM (inactive) | > 100 µM (inactive) | > 100 µM (inactive)
O=S(=O)(N/C(=N\O)Nc1ccc(Cl)cc1)c1cc2ccccc2o1 | 14.7 | 22.9 µM (inactive) | 22.1 µM (inactive) | 12.6 µM (inactive) | 19.8 µM (inactive) | 10.9 µM (inactive) | 34.5 µM (inactive) | 17.9 µM (inactive) | 23.6 µM (inactive) | 14.9 µM (inactive) | 28.8 µM (inactive) | 47.2 µM (inactive) | 34.8 µM (inactive) | 15.3 µM (inactive) | 38.1 µM (inactive) | 18.6 µM (inactive) | 22.6 µM (inactive) | 18.1 µM (inactive) | 18.3 µM (inactive) | 10.6 µM (inactive)
COC1(OC)C[C@H](C)[C@@]23O[C@]24C2=CC(=O)C=CC2=N[C@H]3C#C/C=C\C#C[C@]14O | 0.432 | 0.266 µM (active) | 0.044 µM (active) | 0.724 µM (active) | 1.59 µM (inactive) | 1.19 µM (inactive) | 1.55 µM (inactive) | 1 µM (active) | 0.787 µM (active) | 1.64 µM (inactive) | 0.893 µM (active) | 1.04 µM (active) | 0.537 µM (active) | 0.323 µM (active) | 0.133 µM (active) | 0.578 µM (active) | 0.541 µM (active) | 0.659 µM (active) | 0.711 µM (active) | 0.284 µM (active)
